Results from ChEMBL document CHEMBL3286240, “Inhibition of Enterococcus faecalis biofilm formation by highly active lactones and lactams analogues of rubrolides” (Eur J Med Chem, 2014).
In brackets after ≈: the same amount, converted by molar mass.

The molecules below were run on Enterococcus faecalis (assay: Antimicrobial activity against Enterococcus faecalis assessed as bacterial growth at 87.5 ug/ml after 20 hrs by microtiter plate assay).
Type: functional
`COc1ccc(Br)cc1C1=C(Br)C(=O)N(CC(C)C)/C1=C/c1ccc(Br)cc1` was tested, and the Activity was 57.1%. Molecule `COc1ccc(C)cc1C1=C(Br)C(=O)N(CC(C)C)/C1=C/c1cccc(Cl)c1` has an Activity of 81.4%. `COc1ccc(C)cc1C1=C(Br)C(=O)N(CC(C)C)/C1=C/c1ccccc1Cl` gave an Activity of 82%. In the case of `COc1ccc(Cl)cc1C1=C(Br)C(=O)N(CC(C)C)/C1=C/c1ccccc1Br`, the Activity is reported as 60.9%. Molecule `COc1cccc(/C=C2\C(c3cc(Cl)ccc3OC)=C(Br)C(=O)N2CC(C)C)c1` has an Activity of 56.3%.

These molecules were tested on Enterococcus faecalis (assay: Antimicrobial activity against Enterococcus faecalis assessed as bacterial growth at 43.8 ug/ml after 20 hrs by microtiter plate assay).
Type: functional
`COc1ccc(Br)cc1C1=C(Br)C(=O)N(CC(C)C)/C1=C/c1ccc(Br)cc1` was tested, and the Activity was 22.5%. In the case of `COc1ccc(C)cc1C1=C(Br)C(=O)N(CC(C)C)/C1=C/c1cccc(Cl)c1`, the Activity is reported as 38.4%. `COc1ccc(C)cc1C1=C(Br)C(=O)N(CC(C)C)/C1=C/c1ccccc1Cl` was tested, and the Activity was 58.8%. `COc1ccc(Cl)cc1C1=C(Br)C(=O)N(CC(C)C)/C1=C/c1ccccc1Br` gave an Activity of 43.4%. For `COc1cccc(/C=C2\C(c3cc(Cl)ccc3OC)=C(Br)C(=O)N2CC(C)C)c1`, the Activity was 33.5%.

What follows are molecules tested on Enterococcus faecalis (assay: Antimicrobial activity against Enterococcus faecalis assessed as bacterial growth at 21.9 ug/ml after 20 hrs by microtiter plate assay).
Type: functional
`COc1ccc(Br)cc1C1=C(Br)C(=O)N(CC(C)C)/C1=C/c1ccc(Br)cc1` gave an Activity of 18.1%. In the case of `COc1ccc(C)cc1C1=C(Br)C(=O)N(CC(C)C)/C1=C/c1cccc(Cl)c1`, the Activity is reported as 31.8%. `COc1ccc(C)cc1C1=C(Br)C(=O)N(CC(C)C)/C1=C/c1ccccc1Cl` gave an Activity of 46.9%. With `COc1ccc(Cl)cc1C1=C(Br)C(=O)N(CC(C)C)/C1=C/c1ccccc1Br` the Activity was 32.4%. `COc1cccc(/C=C2\C(c3cc(Cl)ccc3OC)=C(Br)C(=O)N2CC(C)C)c1` was tested, and the Activity was 30.1%.

These molecules were tested on Enterococcus faecalis (assay: Antimicrobial activity against Enterococcus faecalis assessed as bacterial growth at 10.9 ug/ml after 20 hrs by microtiter plate assay).
Type: functional
For `COc1ccc(Br)cc1C1=C(Br)C(=O)N(CC(C)C)/C1=C/c1ccc(Br)cc1`, the Activity was 10.6%. With `COc1ccc(C)cc1C1=C(Br)C(=O)N(CC(C)C)/C1=C/c1cccc(Cl)c1` the Activity was 19.4%. `COc1ccc(C)cc1C1=C(Br)C(=O)N(CC(C)C)/C1=C/c1ccccc1Cl` was tested, and the Activity was 36.1%. With `COc1ccc(Cl)cc1C1=C(Br)C(=O)N(CC(C)C)/C1=C/c1ccccc1Br` the Activity was 42.7%. `COc1cccc(/C=C2\C(c3cc(Cl)ccc3OC)=C(Br)C(=O)N2CC(C)C)c1` gave an Activity of 20.8%.

These molecules were tested on Enterococcus faecalis (assay: Antimicrobial activity against Enterococcus faecalis assessed as bacterial growth at 5.5 ug/ml after 20 hrs by microtiter plate assay).
Type: functional
Work on `COc1ccc(Br)cc1C1=C(Br)C(=O)N(CC(C)C)/C1=C/c1ccc(Br)cc1` yielded an Activity of 9.6%. With `COc1ccc(C)cc1C1=C(Br)C(=O)N(CC(C)C)/C1=C/c1cccc(Cl)c1` the Activity was 10.5%. Molecule `COc1ccc(C)cc1C1=C(Br)C(=O)N(CC(C)C)/C1=C/c1ccccc1Cl` has an Activity of 36.6%. `COc1ccc(Cl)cc1C1=C(Br)C(=O)N(CC(C)C)/C1=C/c1ccccc1Br` showed an Activity of 43.4%. `COc1cccc(/C=C2\C(c3cc(Cl)ccc3OC)=C(Br)C(=O)N2CC(C)C)c1` showed an Activity of 33.7%.

These molecules were tested on Enterococcus faecalis (assay: Antimicrobial activity against Enterococcus faecalis assessed as bacterial growth at 2.73 ug/ml after 20 hrs by microtiter plate assay).
Type: functional
`COc1ccc(Br)cc1C1=C(Br)C(=O)N(CC(C)C)/C1=C/c1ccc(Br)cc1` gave an Activity of 20.2%. In the case of `COc1ccc(C)cc1C1=C(Br)C(=O)N(CC(C)C)/C1=C/c1cccc(Cl)c1`, the Activity is reported as 5%. `COc1ccc(C)cc1C1=C(Br)C(=O)N(CC(C)C)/C1=C/c1ccccc1Cl` showed an Activity of 27.8%. With `COc1ccc(Cl)cc1C1=C(Br)C(=O)N(CC(C)C)/C1=C/c1ccccc1Br` the Activity was 33.3%. With `COc1cccc(/C=C2\C(c3cc(Cl)ccc3OC)=C(Br)C(=O)N2CC(C)C)c1` the Activity was 8.1%.

These molecules were tested on Enterococcus faecalis (assay: Antimicrobial activity against Enterococcus faecalis assessed as bacterial growth at 1.37 ug/ml after 20 hrs by microtiter plate assay).
Type: functional
For `COc1ccc(Br)cc1C1=C(Br)C(=O)N(CC(C)C)/C1=C/c1ccc(Br)cc1`, the Activity was 15.8%. `COc1ccc(C)cc1C1=C(Br)C(=O)N(CC(C)C)/C1=C/c1cccc(Cl)c1` showed an Activity of 1.4%. Molecule `COc1ccc(C)cc1C1=C(Br)C(=O)N(CC(C)C)/C1=C/c1ccccc1Cl` has an Activity of 15.7%. `COc1ccc(Cl)cc1C1=C(Br)C(=O)N(CC(C)C)/C1=C/c1ccccc1Br` was tested, and the Activity was 19.2%. For `COc1cccc(/C=C2\C(c3cc(Cl)ccc3OC)=C(Br)C(=O)N2CC(C)C)c1`, the Activity was -4.8%.

These molecules were tested on Enterococcus faecalis (assay: Antimicrobial activity against Enterococcus faecalis assessed as bacterial growth at 0.68 ug/ml after 20 hrs by microtiter plate assay).
Type: functional
Work on `COc1ccc(Br)cc1C1=C(Br)C(=O)N(CC(C)C)/C1=C/c1ccc(Br)cc1` yielded an Activity of 1.8%. `COc1ccc(C)cc1C1=C(Br)C(=O)N(CC(C)C)/C1=C/c1cccc(Cl)c1` showed an Activity of 1.4%. With `COc1ccc(C)cc1C1=C(Br)C(=O)N(CC(C)C)/C1=C/c1ccccc1Cl` the Activity was -1%. In the case of `COc1ccc(Cl)cc1C1=C(Br)C(=O)N(CC(C)C)/C1=C/c1ccccc1Br`, the Activity is reported as 9.1%. In the case of `COc1cccc(/C=C2\C(c3cc(Cl)ccc3OC)=C(Br)C(=O)N2CC(C)C)c1`, the Activity is reported as -6%.

Each molecule was assayed on Enterococcus faecalis (assay: Antimicrobial activity against Enterococcus faecalis assessed as bacterial growth at 0.34 ug/ml after 20 hrs by microtiter plate assay).
Type: functional
For `COc1ccc(Br)cc1C1=C(Br)C(=O)N(CC(C)C)/C1=C/c1ccc(Br)cc1`, the Activity was -4.4%. `COc1ccc(C)cc1C1=C(Br)C(=O)N(CC(C)C)/C1=C/c1cccc(Cl)c1` was tested, and the Activity was 6.8%. In the case of `COc1ccc(C)cc1C1=C(Br)C(=O)N(CC(C)C)/C1=C/c1ccccc1Cl`, the Activity is reported as -1.8%. Molecule `COc1ccc(Cl)cc1C1=C(Br)C(=O)N(CC(C)C)/C1=C/c1ccccc1Br` has an Activity of 7.4%. `COc1cccc(/C=C2\C(c3cc(Cl)ccc3OC)=C(Br)C(=O)N2CC(C)C)c1` was tested, and the Activity was -6.4%.

These molecules were tested on Enterococcus faecalis (assay: Antimicrobial activity against Enterococcus faecalis assessed as bacterial growth at 0.17 ug/ml after 20 hrs by microtiter plate assay).
Type: functional
`COc1ccc(Br)cc1C1=C(Br)C(=O)N(CC(C)C)/C1=C/c1ccc(Br)cc1` gave an Activity of 0.8%. Molecule `COc1ccc(C)cc1C1=C(Br)C(=O)N(CC(C)C)/C1=C/c1cccc(Cl)c1` has an Activity of 0.4%. In the case of `COc1ccc(C)cc1C1=C(Br)C(=O)N(CC(C)C)/C1=C/c1ccccc1Cl`, the Activity is reported as -1.5%. For `COc1ccc(Cl)cc1C1=C(Br)C(=O)N(CC(C)C)/C1=C/c1ccccc1Br`, the Activity was 0.5%. With `COc1cccc(/C=C2\C(c3cc(Cl)ccc3OC)=C(Br)C(=O)N2CC(C)C)c1` the Activity was -9.4%.

What follows are molecules tested on Enterococcus faecalis (assay: Antimicrobial activity against Enterococcus faecalis assessed as inhibition of biofilm formation after 20 hrs by crystal violet staining analysis).
Type: functional, organism-based
`COc1ccc(Br)cc1C1=C(Br)C(=O)N(CC(C)C)/C1=C/c1ccc(Br)cc1` was tested, and the IC50 was 3.35 µg/mL (≈ 5.88 µM). Molecule `COc1ccc(C)cc1C1=C(Br)C(=O)N(CC(C)C)/C1=C/c1cccc(Cl)c1` has an IC50 of 59.3 µg/mL (≈ 129 µM). In the case of `COc1ccc(C)cc1C1=C(Br)C(=O)N(CC(C)C)/C1=C/c1ccccc1Cl`, the IC50 is reported as 1.04 µg/mL (≈ 2.26 µM). `COc1ccc(Cl)cc1C1=C(Br)C(=O)N(CC(C)C)/C1=C/c1ccccc1Br` was tested, and the IC50 was 0.76 µg/mL (≈ 1.45 µM). `COc1cccc(/C=C2\C(c3cc(Cl)ccc3OC)=C(Br)C(=O)N2CC(C)C)c1` showed an IC50 of 3.26 µg/mL (≈ 6.84 µM).
